For one test, the target named is T1, Human HDAC1 (Homo sapiens, UniProt Q13547).
T1 construct: full length with C-terminal His-tag and C-terminal FLAG-tag; His (C); FLAG (C); host or cells: baculovirus expression system
Kind of test: HDAC1 biochemical assay, AMC-labeled peptide substrate. The note with it: read-out: HDAC Isoform IC50 (nM) 1. The essentials:
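Baculovirus-expressed full-length human HDAC1 with His and FLAG tags, 0.3 ng/ul, incubated 1 h at 30° C with compound and 50 μM RHKK(Ac)AMC in Tris pH 8.0 buffer with BSA and 1% DMSO. Developer then releases AMC from deacetylated substrate; fluorescence read at 360/460 nm.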

The target of another test is T2, Human HDAC2 (Homo sapiens, UniProt Q92769).
T2 construct: full length with C-terminal GST-tag; GST (C); host or cells: baculovirus expression system
The test is described as follows: HDAC2 biochemical assay, AMC-labeled peptide substrate. The following applies: read-out: HDAC Isoform IC50 (nM) 2. As for the experimental part:
(§1) Activity against all zinc-dependent HDACs 1 to 11 was assessed by using an acetylated AMC-labeled peptide substrate. The substrate RHKK(Ac)AMC was used for HDAC1, HDAC2, HDAC3, HDAC6 and HDAC10; the substrate used for HDAC8 was RHK(Ac)K(Ac)AMC. Activity against the class IIa HDACs (HDAC4, 5, 7, 9) and HDAC11 was determined using a class IIa-specific substrate, BOC-Lys(trifluoroacetyl)-AMC (“Trifluoroacetyl Lysine”; see Lahm et al, 2007, PNAS, 104, 17335-17340). All assays were based on the AMC-labeled substrate and developer combination.
(§2) The protocol involved a two-step reaction: first, the substrate with the acetylated lysine side chain is incubated with a sample containing HDAC activity, to produce the deacetylated products, which are then digested in the second step by the addition of developer to produce the fluorescent signal proportional to the amount of deacetylated substrates.
Human HDAC2 (GenBank Accession No. NM_001527), full length with C-terminal GST-tag, MW=82.9 kDa, expressed inbaculovirus expression system.
(§3) Assay Buffer: 50 mM Tris-HCl, pH8.0, 137 mM NaCl, 2.7 mM KCl, 1 mM MgC2. Before use, 1 mg/mL BSA and DMSO are added.
HDAC2: 0.07 ng/ul HDAC2 and 50 μM HDAC substrate are in the reaction buffer with 1% DMSO final. Incubate for 1 hour at 30° C.
(§4) Stage 1: Deacetylation of substrate by incubation of HDAC enzymes with compounds
(§5) Stage 2: Development by addition of Developer to digest the deacetylated substrate, and generate the fluorescent colour; Detection: 360/460 Ex/Em

The target in another test is T3, Human HDAC4 (Homo sapiens, UniProt P56524).
T3 construct: amino acids 627-1085 with N-terminal GST tag; GST (N); host or cells: baculovirus expression system
The test is described as follows: HDAC4 biochemical assay, class IIa-specific substrate. The following applies: read-out: HDAC Isoform IC50 (nM) 4. The essentials:
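GST-tagged human HDAC4 (aa 627-1085, baculovirus) at 0.004 ng/ul was incubated 30 min at room temperature with 50 μM class IIa-specific substrate BOC-Lys(trifluoroacetyl)-AMC in Tris-HCl pH 8.0 buffer with BSA, 1% DMSO. Developer then released AMC, read at 360/460 nm.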

The next test has as its target T4, Human HDAC5 (Homo sapiens, UniProt Q9UQL6).
T4 construct: full length with C-terminal His tag, MW=51.1 kDa; His (C); host or cells: baculovirus expression system
The test is described as follows: HDAC5 biochemical assay, class IIa-specific substrate. The note with it: read-out: HDAC Isoform IC50 (nM) 5. The essentials: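 Full-length C-terminal His-tagged HDAC5 from baculovirus (0.05 ng/ul) incubated 30 min at room temperature with 50 μM Boc-Lys(trifluoroacetyl)-AMC and compound, Tris pH 8.0 buffer with BSA, 1% DMSO. Developer then releases AMC; fluorescence 360/460 nm.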

In the next test the target is T5, Human HDAC10 (Homo sapiens, UniProt Q969S8).
T5 construct: Human HDAC10 (a.a. 1-481); GST (N); His (C); host or cells: baculovirus expression system
T5 sequence (Q969S8 1-481): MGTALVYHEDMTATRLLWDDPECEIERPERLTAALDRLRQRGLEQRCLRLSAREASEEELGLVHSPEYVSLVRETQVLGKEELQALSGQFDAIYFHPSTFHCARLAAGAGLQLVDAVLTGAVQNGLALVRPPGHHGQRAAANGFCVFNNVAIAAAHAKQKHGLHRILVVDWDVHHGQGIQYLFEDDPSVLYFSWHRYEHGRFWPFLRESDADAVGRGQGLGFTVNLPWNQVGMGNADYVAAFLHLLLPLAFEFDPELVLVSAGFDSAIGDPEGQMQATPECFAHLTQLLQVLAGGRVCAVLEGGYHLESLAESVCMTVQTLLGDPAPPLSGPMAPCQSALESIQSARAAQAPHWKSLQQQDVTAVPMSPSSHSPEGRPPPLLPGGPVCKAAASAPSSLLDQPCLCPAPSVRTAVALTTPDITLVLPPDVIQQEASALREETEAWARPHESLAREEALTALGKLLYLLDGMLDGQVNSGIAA
The test is described as follows: HDAC10 biochemical assay, AMC-labeled peptide substrate. The following applies: read-out: HDAC Isoform IC50 (nM) 10. As for the experimental part: as §1, §2
Human HDAC10 (a.a. 1-481), GenBank Accession No. NM_032019 with N-terminal GST tag and C-terminal His tag, MW=78 kDa, expressed in baculovirus expression system.
as §3
HDAC10: 12 ng/ul HDAC10 and 50 μM HDAC substrate are in the reaction buffer with 1% DMSO final. Incubate for 2 hours at 30° C.
as §4, §5

In another test the target is T6, Human HDAC11 (Homo sapiens, UniProt Q96DB2).
T6 construct: Human HDAC11 (full length); His (N); host or cells: baculovirus expression system
T6 sequence (Q96DB2 1-347): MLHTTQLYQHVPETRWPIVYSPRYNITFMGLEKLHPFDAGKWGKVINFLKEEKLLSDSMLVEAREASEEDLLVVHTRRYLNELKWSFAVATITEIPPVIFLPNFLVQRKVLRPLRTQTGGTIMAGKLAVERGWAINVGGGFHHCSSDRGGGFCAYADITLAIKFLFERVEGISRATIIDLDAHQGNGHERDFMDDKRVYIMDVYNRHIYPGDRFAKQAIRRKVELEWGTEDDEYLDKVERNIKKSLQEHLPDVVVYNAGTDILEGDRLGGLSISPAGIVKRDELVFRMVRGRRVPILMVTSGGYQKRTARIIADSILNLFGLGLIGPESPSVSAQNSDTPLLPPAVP
The test is described as follows: HDAC11 biochemical assay, class IIa-specific substrate. The note with it: read-out: HDAC Isoform IC50 (nM) 11. The protocol:
as §1, §2
Human HDAC11 (full length) (GenBank Accession No. NM_024827) with N-terminal His tag, MW=42.9 kDa, expressed in baculovirus expression system.
as §3
HDAC11: 5 ng/ul HDAC11 and 50 μMHDAC substrate are in the reaction buffer with 1% DMSO final. Incubate for 30 minutes at 30° C.
as §4, §5

The record followed here is patent US20210038607A1, “OXADIAZOLYLTHIOPHENE DERIVATIVES USEFUL AS HISTONE DEACETYLASE INHIBITORS” (Karus Therapeutics Limited, priority 2018, published 2021).

T4 sequence (Q9UQL6 656-1122 limits assumed): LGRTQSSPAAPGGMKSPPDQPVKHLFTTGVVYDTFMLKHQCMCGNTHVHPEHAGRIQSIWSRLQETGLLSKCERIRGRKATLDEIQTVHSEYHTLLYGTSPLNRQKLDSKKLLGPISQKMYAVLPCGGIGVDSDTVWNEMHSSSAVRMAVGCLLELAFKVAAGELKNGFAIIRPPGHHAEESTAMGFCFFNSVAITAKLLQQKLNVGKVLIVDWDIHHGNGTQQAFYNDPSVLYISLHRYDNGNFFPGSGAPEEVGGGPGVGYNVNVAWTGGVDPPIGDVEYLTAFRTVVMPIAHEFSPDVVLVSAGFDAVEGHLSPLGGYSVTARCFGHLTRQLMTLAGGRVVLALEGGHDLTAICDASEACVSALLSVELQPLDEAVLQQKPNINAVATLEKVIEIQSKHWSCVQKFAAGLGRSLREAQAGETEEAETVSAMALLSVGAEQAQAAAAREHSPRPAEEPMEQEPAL
T1 sequence (Q13547 whole entry): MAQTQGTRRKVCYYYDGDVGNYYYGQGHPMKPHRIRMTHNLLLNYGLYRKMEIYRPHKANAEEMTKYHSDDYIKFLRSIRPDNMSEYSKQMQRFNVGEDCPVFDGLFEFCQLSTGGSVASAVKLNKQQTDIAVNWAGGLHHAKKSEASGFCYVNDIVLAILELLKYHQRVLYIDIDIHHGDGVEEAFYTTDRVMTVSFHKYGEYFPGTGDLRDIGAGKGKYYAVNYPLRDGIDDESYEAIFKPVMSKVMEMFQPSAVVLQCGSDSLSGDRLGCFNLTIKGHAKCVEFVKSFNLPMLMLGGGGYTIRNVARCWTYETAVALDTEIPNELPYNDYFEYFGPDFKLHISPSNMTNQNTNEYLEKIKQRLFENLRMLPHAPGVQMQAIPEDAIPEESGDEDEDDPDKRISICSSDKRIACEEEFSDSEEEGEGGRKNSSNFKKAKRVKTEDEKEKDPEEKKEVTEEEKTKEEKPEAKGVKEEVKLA
T2 sequence (Q92769 whole entry): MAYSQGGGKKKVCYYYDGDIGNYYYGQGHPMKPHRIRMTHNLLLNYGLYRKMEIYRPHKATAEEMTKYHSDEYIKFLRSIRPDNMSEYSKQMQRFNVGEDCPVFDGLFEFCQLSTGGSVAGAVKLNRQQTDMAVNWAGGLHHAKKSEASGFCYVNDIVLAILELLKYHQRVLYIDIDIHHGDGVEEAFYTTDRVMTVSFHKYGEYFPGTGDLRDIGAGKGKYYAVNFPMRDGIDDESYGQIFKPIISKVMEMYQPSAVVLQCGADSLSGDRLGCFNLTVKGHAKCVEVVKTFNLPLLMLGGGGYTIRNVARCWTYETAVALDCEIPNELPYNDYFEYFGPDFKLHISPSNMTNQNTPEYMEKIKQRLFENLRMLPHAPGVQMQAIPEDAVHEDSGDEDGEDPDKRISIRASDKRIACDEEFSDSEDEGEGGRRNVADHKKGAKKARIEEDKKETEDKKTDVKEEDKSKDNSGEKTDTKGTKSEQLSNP
T3 sequence (P56524 627-1084 limits assumed): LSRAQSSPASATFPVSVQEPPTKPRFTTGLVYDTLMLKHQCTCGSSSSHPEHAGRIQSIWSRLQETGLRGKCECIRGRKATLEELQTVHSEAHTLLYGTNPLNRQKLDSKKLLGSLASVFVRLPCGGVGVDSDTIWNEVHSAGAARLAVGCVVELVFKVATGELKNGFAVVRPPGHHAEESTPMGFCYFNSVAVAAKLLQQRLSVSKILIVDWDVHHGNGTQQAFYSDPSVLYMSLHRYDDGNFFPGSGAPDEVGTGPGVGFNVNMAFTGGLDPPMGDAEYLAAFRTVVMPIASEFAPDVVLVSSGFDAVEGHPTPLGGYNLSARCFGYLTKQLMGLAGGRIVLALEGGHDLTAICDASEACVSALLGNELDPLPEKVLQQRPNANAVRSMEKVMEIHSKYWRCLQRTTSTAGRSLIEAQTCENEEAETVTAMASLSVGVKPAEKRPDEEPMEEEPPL

As usually defined, the IC50 is the point on the concentration scale where inhibition reaches its midpoint. Regarding `O=C(c1ccc(N(Cc2ccc(-c3noc(C(F)(F)F)n3)s2)c2cnccn2)nn1)N1CC(O)(C(F)(F)F)C1` [Example FK, 1-{6-[(Pyrazin-2-yl)({5-[5-(trifluoromethyl)-1,2,4-oxadiazol-3-yl]thiophen-2-yl}methyl)amino]pyridazine-3-carbonyl}-3-(trifluoromethyl)azetidin-3-ol], the concentration for half-maximal inhibition (IC50) on Human HDAC1 was > 10000 nM; at Human HDAC2, > 10000 nM; at Human HDAC4 it was ≤ 500 nM; on Human HDAC5, ≤ 500 nM; at Human HDAC10 it was > 10000 nM; on Human HDAC11 it was > 10000 nM.
For `O=C(c1ccc(N(Cc2ccc(-c3noc(C(F)(F)F)n3)s2)c2cnccn2)nn1)N1CCC12COC2` [Example FH, 6-{6-Oxa-1-azaspiro[3.3]heptane-1-carbonyl}-N-(pyrazin-2-yl)-N-({5-[5-(trifluoromethyl)-1,2,4-oxadiazol-3-yl]thiophen-2-yl}methyl)pyridazin-3-amine], the IC50 was ≤ 10000 nM at Human HDAC1; > 10000 nM at Human HDAC2; ≤ 500 nM at Human HDAC4; ≤ 500 nM at Human HDAC5; > 10000 nM on Human HDAC10; > 10000 nM on Human HDAC11.
Take `COC1CN(C(=O)c2ccc(N(Cc3ccc(-c4noc(C(F)(F)F)n4)s3)c3cnccn3)nn2)C1` [Example DR, 6-(3-Methoxyazetidine-1-carbonyl)-N-(pyrazin-2-yl)-N-({5-[5-(trifluoromethyl)-1,2,4-oxadiazol-3-yl]thiophen-2-yl}methyl)pyridazin-3-amine]: the 50% inhibitory concentration (IC50) at Human HDAC1 is ≤ 10000 nM; at Human HDAC2, > 10000 nM; on Human HDAC4, ≤ 500 nM; on Human HDAC5 it was ≤ 500 nM; on Human HDAC10, > 10000 nM; at Human HDAC11, > 10000 nM.
As for `Cc1cncc(N(Cc2ccc(-c3noc(C(F)(F)F)n3)s2)c2cnccn2)n1` [Example BP, 6-Methyl-N-(pyrazin-2-yl)-N-({5-[5-(trifluoromethyl)-1,2,4-oxadiazol-3-yl]thiophen-2-yl}methyl)pyrazin-2-amine], the IC50 at Human HDAC1 is > 10000 nM; at Human HDAC2, > 10000 nM; on Human HDAC4, ≤ 1000 nM; at Human HDAC5 it was ≤ 500 nM; on Human HDAC10, > 10000 nM; on Human HDAC11 it was > 10000 nM.
Consider `O=C(O)c1cnnc(N(Cc2ccc(-c3noc(C(F)(F)F)n3)s2)c2cc(C(F)(F)F)cnn2)c1` [Example ES, 6-[({5-[5-(Trifluoromethyl)-1,2,4-oxadiazol-3-yl]thiophen-2-yl}methyl)[5-(trifluoromethyl)pyridazin-3-yl]amino]pyridazine-4-carboxylicacid], for which the concentration for half-maximal inhibition (IC50) on Human HDAC1 is > 10000 nM; on Human HDAC2 it was > 10000 nM; on Human HDAC4 it was ≤ 10000 nM; on Human HDAC5, ≤ 10000 nM; on Human HDAC10 it was > 10000 nM; on Human HDAC11, > 10000 nM.
For the compound `O=C(c1ccc(N(Cc2ccc(-c3noc(C(F)(F)F)n3)s2)c2cnccn2)nn1)N1CCC2(COC2)C1` [Example FJ, 6-{2-Oxa-6-azaspiro[3.4]octane-6-carbonyl}-N-(pyrazin-2-yl)-N-({5-[5-(trifluoromethyl)-1,2,4-oxadiazol-3-yl]thiophen-2-yl}methyl)pyridazin-3-amine], the IC50 is ≤ 10000 nM at Human HDAC1; > 10000 nM at Human HDAC2; ≤ 500 nM on Human HDAC4; ≤ 500 nM on Human HDAC5; > 10000 nM on Human HDAC10; > 10000 nM on Human HDAC11.
On to `O=C(c1cnnc(N(Cc2ccc(-c3noc(C(F)(F)F)n3)s2)c2cnccn2)c1)N1CC2CCC(C1)O2` [Example GA, 5-{8-Oxa-3-azabicyclo[3.2.1]octane-3-carbonyl}-N-(pyrazin-2-yl)-N-({5-[5-(trifluoromethyl)-1,2,4-oxadiazol-3-yl]thiophen-2-yl}methyl)pyridazin-3-amine], for which the IC50 on Human HDAC1 was > 10000 nM; at Human HDAC2 it was > 10000 nM; at Human HDAC4, ≤ 10000 nM; at Human HDAC5, ≤ 1000 nM; at Human HDAC10 it was > 10000 nM; at Human HDAC11, > 10000 nM.
